Article PMC8713287, “Synthesis and Cytotoxic Activity of Lepidilines A–D: Comparison with Some 4,5-Diphenyl Analogues and Related Imidazole-2-thiones” (Journal of Natural Products, 2021)
Structures can show the parent of a compound that is named as a salt.

Experiments:
[1] = tested on: breast cancer adenocarcinoma MCF-7; assay: MTT cytotoxicity assay, MCF-7; format: cell-based, human; details: mean ± SEM
Method: (§1) Potential biological activity of all four lepidilines A–D (1a–1d), as well as their 4,5-diphenyl analogues 6a[PF6], 6c[PF6], and 6d[PF6] (as hexafluorophosphate salts) and a series of imidazole-2-thiones 7 and 8 obtained therefrom, was evaluated in vitro against two human cancer cell lines: promyelocytic leukemia HL-60 and breast cancer adenocarcinoma MCF-7. Selected analogues were also tested against human umbilical vein endothelial cells (HUVECs) using the MTT cytotoxicity assay. Concentration–response analysis was performed to determine drug concentrations required to inhibit the growth of cells by 50% (IC50) after 48 h of incubation.
(§2) Human promyelocytic leukemia (HL-60) and human breast cancer adenocarcinoma (MCF-7) cell lines were obtained from the European Collection of Cell Cultures, while HUVECs were purchased from the American Type Culture Collection. HL-60 cells were cultured in RPMI 1640 plus GlutaMax I medium (Gibco/Life Technologies, Carlsbad, CA, USA). MCF-7 cells were maintained in minimum essential medium Eagle (Sigma-Aldrich, St. Louis, MO, USA) supplemented with 2 mM glutamine and Men nonessential amino acid solution (Sigma-Aldrich). Both media were supplemented with 10% heat-inactivated fetal bovine serum (Biological Industries, Beit-Haemek, Israel) and antibiotics (100 U/mL penicillin and 100 μg/mL streptomycin) (Sigma-Aldrich). HUVEC cells were grown in EGM-2 endothelial medium BulletKit (Lonza, Basel, Switzerland). Cells were maintained at 37 °C in a 5% CO2 atmosphere and were grown until 80% confluent.
(§3) The tested compounds were dissolved in sterile dimethyl sulfoxide (DMSO) and further diluted with culture medium. The final concentration of DMSO in cell cultures was less than 0.1% v/v. Controls without and with 0.1% DMSO were performed in each experiment.
(§4) The MTT assay was performed according to the known procedure.[30] The cells were incubated with the analogues for 48 h. The absorbance of the blue formazan product was measured at 560 nm using a FlexStation 3 multi-mode microplate reader (Molecular Devices, LLC, CA, USA) and compared with control (untreated cells). All experiments were performed in triplicate.

[2] = tested on: promyelocytic leukemia HL-60; assay: MTT cytotoxicity assay, HL-60; format: cell-based, human; details: for IC50: MTT, 48 h incubation, mean ± SEM; for HUVEC/HL-60 IC50 ratio: normal HUVEC vs HL-60
Method: as §1, §2, §3, §4

[3] = tested on: eight human cancer cell lines; design: method as in PMID 12932133; details: inactive against all those cell lines; cited from earlier work
[4] = tested on: human umbilical vein endothelial cells (HUVECs); assay: MTT cytotoxicity assay, HUVEC; format: cell-based; details: 48 h incubation, normal cells, mean ± SEM
Method: as §1, §2, §3, §4

[5] = tested on: breast carcinoma MDA-231; design: method as in PMID 12932133; details: cited from earlier work
[6] = tested on: pancreatic adenocarcinoma PACA2; design: method as in PMID 12932133; details: cited from earlier work
[7] = Homo sapiens, MCF7, 48 h incubation

SMILES | IC50 [1, 7] [µM] | IC50 ([2]; Homo sapiens, HL-60, 48 h) [µM] | IC50 [4] [µM] | melting point [°C] | also measured
c1c[n+](C23CC4CC(CC(C4)C2)C3)cn1C12CC3CC(CC(C3)C1)C2 [compound 9, 1,3-diadamantylimidazolium bromide] | 51.5 ± 1.5 | 1.8 ± 0.1 | – | – | –
Cc1c(C)[n+](Cc2ccccc2)cn1Cc1ccccc1 [1a, 1,3-Dibenzyl-4,5-dimethylimidazolium chloride] | > 100 | 32.3 ± 3.5 | > 100 | – | IC50 [3]: > 10 µM
COc1cccc(C[n+]2c(-c3ccccc3)c(-c3ccccc3)n(Cc3ccccc3)c2C)c1 (as salt: phosphate) [6d[PF6], 1-Benzyl-3-(3-methoxybenzyl)-2-methyl-4,5-diphenylimidazolium hexafluorophosphate] | – | – | – | 175 to 177 | –
COc1cccc(Cn2c(C)c(C)n(Cc3ccccc3)c2=S)c1 [7c, 1-(3′-Methoxybenzyl)-3-benzyl-4,5-dimethylimidazole-2-thione] | > 100 | 20.2 ± 1.9 | – | – | –
COc1cccc(C[n+]2c(-c3ccccc3)c(-c3ccccc3)n(Cc3ccccc3)c2C)c1 [6d[PF6], 1-Benzyl-3-(3-methoxybenzyl)-2-methyl-4,5-diphenylimidazolium hexafluorophosphate] | 6.5 ± 0.2 | 1.2 ± 0.1 | – | – | –
COc1cccc(C[n+]2cn(Cc3ccccc3)c(-c3ccccc3)c2-c2ccccc2)c1.[Br-] [6c[Br], 1-Benzyl-3-(3-methoxybenzyl)-4,5-diphenylimidazolium bromide] | – | – | – | 149 to 151 | –
S=c1n(Cc2ccccc2)c(-c2ccccc2)c(-c2ccccc2)n1Cc1ccccc1 [8a, 1,3-Dibenzyl-4,5-diphenylimidazole-2-thione] | > 100 | 8.1 ± 0.3 | – | 180 to 182 | –
COc1cccc(C[n+]2cn(Cc3ccccc3)c(-c3ccccc3)c2-c2ccccc2)c1 (as salt: phosphate) [6c[PF6], 1-Benzyl-3-(3-methoxybenzyl)-4,5-diphenylimidazolium hexafluorophosphate] | – | – | – | 78 to 81 | –
COc1cccc(C[n+]2cn(Cc3ccccc3)c(C)c2C)c1 (as salt: phosphate) [1c[PF6], 1-Benzyl-3-(3-methoxybenzyl)-4,5-dimethylimidazolium hexafluorophosphate] | – | – | – | 102 to 104 | –
COc1cccc(Cn2c(C)c(C)[n+](Cc3ccccc3)c2C)c1.[Cl-] [1d, 1-Benzyl-3-(3-methoxybenzyl)-2,4,5-trimethylimidazolium chloride] | > 100 | 1.1 ± 0.1 | > 100 | 214 to 216 | fold more cytotoxic for leukemia (HL-60) than for breast cancer (MCF-7) cells ([2]; MCF-7 vs HL-60): over 100 fold; HUVEC/HL-60 IC50 ratio [2]: over 100
COc1cccc(C[n+]2cn(Cc3ccccc3)c(-c3ccccc3)c2-c2ccccc2)c1 [6c[PF6], 1-Benzyl-3-(3-methoxybenzyl)-4,5-diphenylimidazolium hexafluorophosphate] | 7.9 ± 0.3 | 1.2 ± 0.2 | 8.8 ± 0.1 | – | –
c1ccc(Cn2c[n+](Cc3ccccc3)c(-c3ccccc3)c2-c2ccccc2)cc1 (as salt: phosphate) [6a[PF6], 1,3-Dibenzyl-4,5-diphenylimidazolium hexafluorophosphate] | – | – | – | 129 to 131 | –
Cc1c(C)[n+](Cc2ccccc2)c(C)n1Cc1ccccc1.[Cl-] [1b, 1,3-Dibenzyl-2,4,5-trimethylimidazolium chloride] | > 100 | 3.8 ± 0.2 | > 100 | 228 to 229 | IC50 MDA-231 [5]: 1.66 µg/mL; IC50 ([5]; converted from μg/mL): 5.1 µM; IC50 PACA2 [6]: 1.38 µg/mL; IC50 ([6]; converted from μg/mL): 4.2 µM
Cc1c(C)n(Cc2ccccc2)c(=S)n1Cc1ccccc1 [7a, 1,3-Dibenzyl-4,5-dimethylimidazole-2-thione] | > 100 | > 100 | – | 183 to 185 | –
c1c[n+](OC23CC4CC(CC(C4)C2)C3)cn1OC12CC3CC(CC(C3)C1)C2 [compound 10] | 4.5 ± 0.1 | 0.3 ± 0.1 | 9.1 ± 0.3 | – | –
Cc1c(C)[n+](Cc2ccccc2)cn1Cc1ccccc1 [1a[PF6]] [1,3-Dibenzyl-4,5-dimethylimidazolium hexafluorophosphate] | – | – | – | – | IC50 ([1]; 48 h incubation): > 100 µM; IC50 [2]: 32 ± 2 µM
COc1cccc2c1C(=O)c1c(O)c3c(c(O)c1C2=O)C[C@@](O)(C(=O)CO)C[C@@H]3O[C@H]1C[C@H](N)[C@H](O)[C@H](C)O1 [DXR, doxorubicin, reference compound] | 0.9 ± 0.1 | 0.12 ± 0.01 | 1.4 ± 0.1 | – | fold more cytotoxic than lepidiline D ([2]; DXR vs lepidiline D, HL-60): 10 fold; HUVEC/HL-60 IC50 ratio [2]: about 10
COc1cccc(Cn2c(-c3ccccc3)c(-c3ccccc3)n(Cc3ccccc3)c2=S)c1 [8c, 1-(3′-Methoxybenzyl)-3-benzyl-4,5-diphenylimidazole-2-thione] | > 100 | 55 ± 5 | – | 52 to 55 | –
COc1cccc(Cn2c[n+](Cc3ccccc3)c(C)c2C)c1.[Cl-] [1c, 1-Benzyl-3-(3-methoxybenzyl)-4,5-dimethylimidazolium chloride] | 75 ± 5 | 27.7 ± 2.5 | > 100 | 94 to 96 | –
c1ccc(Cn2c[n+](Cc3ccccc3)c(-c3ccccc3)c2-c2ccccc2)cc1 [6a[PF6], 1,3-Dibenzyl-4,5-diphenylimidazolium hexafluorophosphate] | 8.2 ± 0.2 | 1.2 ± 0.1 | – | – | –
COc1cccc(C[n+]2cn(Cc3ccccc3)c(C)c2C)c1 [1c[PF6], 1-Benzyl-3-(3-methoxybenzyl)-4,5-dimethylimidazolium hexafluorophosphate] | 69.9 ± 0.2 | 19.9 ± 0.2 | – | – | –
